Consider 25 molecules from patent US10981902B2 (Merck Sharp & Dohme Corp., priority 2017, dated 2021).

The target in this test is T1, human M4 muscarinic acetylcholine receptor (Homo sapiens, UniProt P08173).
T1 construct: expressed in transfected cells; host or cells: CHO-K1
T1 sequence (P08173 1-479): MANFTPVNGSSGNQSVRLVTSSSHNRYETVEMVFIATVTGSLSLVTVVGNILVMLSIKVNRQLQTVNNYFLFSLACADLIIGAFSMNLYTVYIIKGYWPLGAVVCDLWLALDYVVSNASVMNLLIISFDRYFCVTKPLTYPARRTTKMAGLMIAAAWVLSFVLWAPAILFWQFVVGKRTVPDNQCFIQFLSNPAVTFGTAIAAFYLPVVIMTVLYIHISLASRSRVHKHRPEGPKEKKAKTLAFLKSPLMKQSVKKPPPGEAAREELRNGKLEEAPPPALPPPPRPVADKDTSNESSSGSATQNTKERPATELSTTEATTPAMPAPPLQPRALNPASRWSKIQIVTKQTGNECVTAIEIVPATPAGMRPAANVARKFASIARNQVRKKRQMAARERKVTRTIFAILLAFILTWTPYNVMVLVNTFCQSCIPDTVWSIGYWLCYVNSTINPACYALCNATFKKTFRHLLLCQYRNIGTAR
The experiment in a line: human FLIPR-based M4 PAM assay (calcium mobilization, CHO-K1 cells with human M4 receptor and Gαqi5). The class given is cell-based. The settings on record: inflection point (IP) of dose response curve, acetylcholine added at 20% of maximum response, read-out: M4 FLIPPR Hu IP. Put shortly:
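CHO-K1 cells stably expressing human M4 and Gαqi5, dye-loaded ~1 h at 37 °C, read on FLIPR Tetra. Test compound added at increasing concentrations 4 min before acetylcholine at an EC20 concentration, sometimes followed by an EC70 addition. Dose-response curves fit to a 4-parameter logistic; result is the curve inflection point.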
(Calcium assays in cells follow changes in intracellular calcium, usually with a dye or a luminescent sensor.)

With `N#Cc1ccc(-c2cnc(CC(F)C3CC3)o2)c(-c2ccn3ccnc3c2)n1` (stereo not shown) [Example 84, 5-(2-(2-cyclopropyl-2-fluoroethyl)oxazol-5-yl)-6-(imidazo[1,2-a]pyridin-7-yl) picolinonitrile], the EC50 was found to be 30 nM.
Then `N#Cc1ccc(-c2cnc(CC(F)C3CC3)o2)c(-c2ccn3ccnc3c2)n1` (stereo not shown) [Example 85, 5-(2-(2-cyclopropyl-2-fluoroethyl)oxazol-5-yl)-6-(imidazo[1,2-a]pyridin-7-yl) picolinonitrile], with 49 nM.
For the molecule `Cc1cn2ccc(-c3nc(C#N)ccc3-c3cnc(CC(C)(C)F)o3)cc2n1` [Example 86, 5-(2-(2-fluoro-2-methylpropyl)oxazol-5-yl)-6-(2-methylimidazo [1,2-a]pyridin-7-yl) picolinonitrile], the EC50 is 101 nM.
For `Cc1cn2ccc(-c3nc(C#N)ccc3-c3cnc(CC(F)C4CC4)o3)cc2n1` (stereo not shown) [Example 87, 5-(2-(2-cyclopropyl-2-fluoroethyl)oxazol-5-yl)-6-(2-methylimidazo [1,2-a]pyridin-7-yl) picolinonitrile] the value was 44 nM; for `Cc1cn2ccc(-c3nc(C#N)ccc3-c3cnc(CC(F)C4CC4)o3)cc2n1` (stereo not shown) [Example 88, 5-(2-(2-cyclopropyl-2-fluoroethyl)oxazol-5-yl)-6-(2-methylimidazo [1,2-a]pyridin-7-yl)picolinonitrile], 63 nM.
Turning to `Cc1nc2cc(-c3nc(C#N)ccc3-c3cnc(CC(C)(C)F)o3)ccc2n1C` [Example 89, 6-(1,2-dimethyl-1H-benzo[d]imidazol-5-yl)-5-(2-(2-fluoro-2-methylpropyl)oxazol-5-yl)picolinonitrile], the EC50 stood at 112 nM.
As for `CCC(C)(F)Cc1ncc(-c2ccc(C#N)nc2-c2ccn3cc(C)nc3c2)o1` (stereo not shown) [Example 90, 5-(2-(2-fluoro-2-methylbutyl)oxazol-5-yl)-6-(2-methylimidazo [1,2-a]pyridin-7-yl)picolinonitrile], the EC50 came out at 31 nM.
With `Cc1cn2ccc(-c3ncccc3-c3cnc(CC4(F)CCCC4)o3)cc2n1` [Example 91, 2-((1-fluorocyclopentyl)methyl)-5-(2-(2-methylimidazo [1,2-a]pyridin-7-yl)pyridin-3-yl)oxazole], the EC50 was determined as 76 nM.
For `Cc1cn2ccc(-c3nc(C#N)ccc3-c3cnc(CC(O)C(C)C)o3)cc2n1` (stereo not shown) [Example 92, 5-(2-(2-hydroxy-3-methylbutyl)oxazol-5-yl)-6-(2-methylimidazo [1,2-a]pyridin-7-yl)picolinonitrile] the value was 131 nM.
For `COCc1cn2ccc(-c3nc(C#N)ccc3-c3cnc(CC4CC4)o3)cc2n1` [Example 93, 5-(2-(cyclopropylmethyl)oxazol-5-yl)-6-(2-(methoxymethyl)imidazo[1,2-a]pyridin-7-yl)picolinonitrile] the value was 137 nM.
For `CC(Cc1ncc(-c2ccc(C#N)nc2-c2ccn3ccnc3c2)o1)C(F)F` (stereo not shown) [Example 94, 5-(2-(3,3-difluoro-2-methylpropyl)oxazol-5-yl)-6-(imidazo[1,2-a]pyridin-7-yl) picolinonitrile] the value was 137 nM; for `Cc1cn2ccc(-c3nc(C#N)ccc3-c3cnc(CC(C)C(F)(F)F)o3)cc2n1` (stereo not shown) [Example 95, 6-(2-methylimidazo[1,2-a]pyridin-7-yl)-5-(2-(3,3,3-trifluoro-2-methylpropyl)oxazol-5-yl)picolinonitrile], 194 nM.
For the molecule `CC1(Cc2ncc(-c3ccc(C#N)nc3-c3cnc4c(c3)C(=O)N(CCF)C4)o2)CCCC1` [Example 96, 6-(6-(2-fluoroethyl)-5-oxo-6,7-dihydro-5H-pyrrolo[3,4-b]pyridin-3-yl)-5-(2-((1-methylcyclopentyl)methyl)oxazol-5-yl)picolinonitrile], the EC50 is 52 nM.
On to `Cc1cn2ccc(-c3nc(C#N)ccc3-c3cnc(CC4CC(F)(F)C4)o3)cc2n1` [Example 98, 5-(2-((3,3-difluorocyclobutyl)methyl)oxazol-5-yl)-6-(2-methylimidazo[1,2-a]pyridin-7-yl)picolinonitrile], for which the EC50 turned out to be 36 nM.
Then `Cc1nc2cc(-c3nc(C#N)ccc3-c3cnc(CC4CC(F)(F)C4)o3)ccn2n1` [Example 99, 5-(2-((3,3-difluorocyclobutyl)methyl)oxazol-5-yl)-6-(2-methyl-[1,2,4]triazolo[1,5-a]pyridin-7-yl) picolinonitrile], with 89 nM; and `Cc1cn2ccc(-c3nc(C#N)ccc3-c3cnc(CC4(F)CC4)o3)cc2n1` [Example 100, 5-(2-((1-fluorocyclopropyl)methyl)oxazol-5-yl)-6-(2-methyl-imidazo[1,2-a]pyridin-7-yl)picolinonitrile], with 158 nM.
For `N#Cc1ccc(-c2cnc(C[C@@H]3CC[C@H](F)C3)o2)c(-c2ccc3cccnc3c2)n1` [Example 101, 5-(2-(((1S,3S)-3-fluorocyclopentyl)methyl)oxazol-5-yl)-6-(quinolin-7-yl)picolinonitrile] the value was 25 nM; for `COc1cc2ccc(-c3nc(C)ccc3-c3cnc(C(F)(F)C4CCCC4)o3)cc2nn1` [Example 102, 2-(cyclopentyldifluoromethyl)-5-(2-(3-methoxycinnolin-7-yl)-6-methylpyridin-3-yl)oxazole], 51 nM; for `CC(C)(F)CCc1ncc(-c2ccc(C#N)nc2-c2ccc3cccnc3c2)o1` [Example 103, 5-(2-(3-fluoro-3-methylbutyl)oxazol-5-yl)-6-(quinolin-7-yl)picolinonitrile], 86 nM.
For `CC(C)(F)CCc1ncc(-c2ccc(C#N)nc2-c2ccn3ccnc3c2)o1` [Example 104, 5-(2-(3-fluoro-3-methylbutyl)oxazol-5-yl)-6-(imidazo[1,2-a]pyridin-7-yl) picolinonitrile] the value was 147 nM; for `Cc1nc2cc(-c3ncc(F)cc3-c3cnc(CCC(C)(C)F)o3)ccc2n1C` [Example 105, 5-(2-(1,2-dimethyl-1H-benzo[d]imidazol-5-yl)-5-fluoropyridin-3-yl)-2-(3-fluoro-3-methylbutyl)oxazole], 198 nM; for `Cc1cn2ccc(-c3nc(C#N)ccc3-c3cnc(CCC(O)C(F)(F)F)o3)cc2n1` (stereo not shown) [Example 106, 6-(2-methylimidazo[1,2-a]pyridin-7-yl)-5-(2-(4,4,4-trifluoro-3-hydroxybutyl)oxazol-5-yl)picolinonitrile], 143 nM.
As for `Cc1cn2ccc(-c3nc(C#N)ccc3-c3cnc(CCC(F)(F)F)o3)cc2n1` [Example 107, 6-(2-methylimidazo[1,2-a]pyridin-7-yl)-5-(2-(3,3,3-trifluoropropyl)oxazol-5-yl)picolinonitrile], the EC50 amounted to 96 nM.
As for `Cc1cn2ccc(-c3nc(C#N)ccc3-c3cnc(CCC(F)(F)C(F)(F)F)o3)cc2n1` [Example 108, 6-(2-methylimidazo [1,2-a]pyridin-7-yl)-5-(2-(3,3,4,4,4-pentafluorobutyl)oxazol-5-yl) picolinonitrile], the EC50 is 133 nM.
As to `N#Cc1ccc(-c2cnc(CCC(F)(F)C(F)(F)F)o2)c(-c2ccn3ccnc3c2)n1` [Example 109, 6-(imidazo[1,2-a]pyridin-7-yl)-5-(2-(3,3,4,4,4-pentafluorobutyl)oxazol-5-yl) picolinonitrile], the EC50 came out at 105 nM.
